Measured values reported in US9233978B2, “6-fused heteroaryldihydropyrimidines for the treatment and prophylaxis of hepatitis B virus infection” (Hoffmann-La Roche Inc., priority 2014, dated 2016).
Values after ≈ are worked out from the molar mass of the structure shown.

Tests used:
HBV = test: Anti-HBV activity in vitro, HepG2.2.15 cells, extracellular HBV DNA by qPCR; assay type: cell-based; conditions: Hepatitis B virus, HepG2.2.15, 120 h, HepG2.2.15 cells; HBV replication inhibited by 50%, extracellular HBV DNA by qPCR; five days after compound treatment; read-out: EC50
From the text: HepG2.2.15 and HepDE19 are stably-transfected cell lines containing the HBV genome. Both cell lines are derived from the hepatoblastoma cell line Hep G2 (American Type Culture Collection, ATCC® HB-8065™) by the published procedures described in references: MA Selles et al. Proc. Natl. Acad. Sci. USA 1987, 84, 1005-1009 and H Guo et al. Journal of Virology 2007, 81, 12472-12484, respectively. Both cell lines were maintained in Dulbecco's modified Eagle's medium (DMEM)-F12 medium supplemented with 10% fetal bovine serum, 100 U/mL penicillin, 100 μg/mL streptomycin, and 0.5 mg/mL of G418.
While HepG2.2.15 cells constitutively support HBV replication and production of virus particles, HepDE19 cells are inducible by tetracycline. Addition of 1 μg/mL tetracycline in culture medium suppresses HBV replication in HepDE19 cells, whereas switching to tetracycline-free medium resumes this process.
HepG2.2.15 cells were seeded into 96-well plates (3×10^4 cells in 100 μL media per well) and incubated overnight at 37° C. The test compounds were serially half-log diluted in DMSO, then diluted 100 times in culture media. 100 μL of diluted compounds were added into the plates to reach 0.5% final concentration of DMSO in every well. Five days after compound treatment, culture supernatant was collected for further analysis.
For quantitative PCR detection of extracellular HBV DNA, 100 μL of culture supernatant was collected and processed in MagNA Pure 96 Nucleic Acid Purification System (Roche Applied Science) for viral DNA extraction. The extracted samples were subjected to HBV DNA quantification by qPCR.

[1] = Human microsomal metabolic stability; assay type: in vitro ADME; conditions: human microsomes 0.5 mg/mL, 1 μM test compound, NADPH, 37° C., pH 7.4, 0-30 minutes
Protocol: Human Microsomes (BD Gentest) were preincubated with test compound for 10 minutes at 37° C. in 100 mM phosphate buffer, pH 7.4. The reactions were initiated by adding NADPH or NADPH regenerating system to give a final incubation volume of 400 μL. For NADPH system, the final incubations contained 1 μM test compound, 0.5 mg/mL liver microsomal protein, 1 mM NADPH in 100 mM phosphate buffer, pH 7.4. For the NADPH regenerating system, the final incubations contained 1 μM test compound, 0.5 mg/mL liver microsomal protein, 3 mM glucose 6-phosphate, 1 mM NADP, 3 mM MgCl2 and 0.05 mg/mL glucose 6-phosphate dehydrogenase in 100 mM phosphate buffer, pH 7.4. After incubation times of 0, 3, 6, 9, 15 and 30 minutes at 37° C., 1 sample was obtained from each time point and 50 μL of each sample was removed and transferred to 150 μL of methanol solution which was maintained at 4° C. and contained 2 μM tolbutamide as internal standard. Following precipitation and centrifugation, the amount of compound remaining in the samples were determined by LC-MS/MS. Controls of no NADPH or no NADPH regenerating system at zero and 30 minutes were also prepared and analyzed.

Lysa solubility = assay type: physicochemical; conditions: 0.05 M phosphate buffer (pH 6.5); for solubility thermodynamic: phosphate buffer, pH 6.5, aqueous buffer, thermodynamic from solid
Protocol: Samples were prepared in duplicate from 10 mM DMSO stock solutions. After evaporation of DMSO with a centrifugal vacuum evaporator, the residue was solved in 0.05 M phosphate buffer (pH 6.5), stirred for one hour and shook for two hours. After one night, the solution was filtered using a microtiter filter plate. Then the filtrate and its 1/10 dilution were analyzed by direct UV measurement or by HPLC-UV. […] The results were in μg/mL. In case the percentage of sample measured in solution after evaporation divided by the calculated maximum of sample amount was over 80%, the solubility was reported as higher than this value.

Row | SMILES | EC50 (HBV) [nM] | Human Microsomal Clearance [1] [mL/min/kg] | Lysa (Lysa solubility) [µg/mL] | solubility thermodynamic (Lysa solubility) [µg/mL]
1 | CCOC(=O)C1=C(CN2CCN3C(=O)N(C4CC4)C[C@H]3[C@@H]2C(=O)O)NC(c2nccs2)=N[C@H]1c1cccc(F)c1Cl (single isomer, unassigned) [Example 82A] | 145 | 1.7 | – | –
2 | COC(=O)C1=C(CN2CCN3C(=O)N(C(C)C)C[C@H]3[C@@H]2C(=O)O)NC(c2nccs2)=N[C@H]1c1ccc(F)c(F)c1C (single isomer, unassigned) [Example 85A] | 259 | 4.9 | > 660 | –
3 | COC(=O)C1=C(CN2CCN3C(=O)OC(C)(C)[C@]3(CC(=O)O)C2)NC(c2nccs2)=N[C@H]1c1ccc(F)cc1Cl (single isomer, unassigned) [Example 90A] | 96 | 0.3 | – | –
4 | CCOC(=O)C1=C(CN2CCN3C(=O)N(C4(CC(=O)O)CC4)CC3C2)NC(c2nccs2)=N[C@H]1c1cccc(F)c1Cl (stereo in doubt) [Example 48, 2-[1-[(8aR)-7-[[(4R)-4-(2-chloro-3-fluoro-phenyl)-5-ethoxycarbonyl-2-thiazol-2-yl-1,4-dihydropyrimidin-6-yl]methyl]-3-oxo-5,6,8,8a-tetrahydro-1H-imidazo[1,5-a]pyrazin-2-yl]cyclopropyl]acetic acid] | 22 | 3.8 | – | > 807
5 | CCOC(=O)C1=C(CN2CCN3C(=O)N([C@@H]4CCCC4C(=O)O)C[C@@H]3C2)NC(c2nccs2)=N[C@H]1c1cccc(F)c1Cl (stereo in doubt) [Example 50, (1R,2R)-2-[(8aS)-7-[[(4R)-4-(2-chloro-3-fluoro-phenyl)-5-ethoxycarbonyl-2-thiazol-2-yl-1,4-dihydropyrimidin-6-yl]methyl]-3-oxo-5,6,8,8a-tetrahydro-1H-imidazo[1,5-a]pyrazin-2-yl]cyclopentanecarboxylic acid] | 15 | 3.6 | – | 339 (≈ 537 µM)
6 | CCOC(=O)C1=C(CN2CCN3C(=O)N(CC(C)C(=O)O)C[C@@H]3C2)NC(c2nccs2)=N[C@H]1c1ccccc1Cl (stereo partly drawn) [Example 20, 3-[(8aS)-7-[[(4R)-4-(2-chlorophenyl)-5-ethoxycarbonyl-2-thiazol-2-yl-1,4-dihydropyrimidin-6-yl]methyl]-3-oxo-5,6,8,8a-tetrahydro-1H-imidazo[1,5-a]pyrazin-2-yl]-2-methyl-propanoic acid] | 52 | 0.1 | – | > 780
7 | CCOC(=O)C1=C(CN2CCN3C(=O)N(c4ccccc4C(=O)O)C[C@@H]3C2)NC(c2nccs2)=N[C@H]1c1cccc(F)c1Cl [Example 28, (R)-6-[(S)-2-(2-Carboxy-phenyl)-3-oxo-hexahydro-imidazo[1,5-a]pyrazin-7-ylmethyl]-4-(2-chloro-3-fluoro-phenyl)-2-thiazol-2-yl-1,4-dihydro-pyrimidine-5-carboxylic acid ethyl ester] | 30 | 4.4 | – | 337 (≈ 527 µM)
8 | COC(=O)C1=C(CN2CCN3C(=O)N(c4cccc(C(=O)O)c4)C[C@@H]3C2)NC(c2nccs2)=N[C@H]1c1ccc(F)cc1Cl [Example 29, (R)-6-[(S)-2-(3-Carboxy-phenyl)-3-oxo-hexahydro-imidazo[1,5-a]pyrazin-7-ylmethyl]-4-(2-chloro-4-fluoro-phenyl)-2-thiazol-2-yl-1,4-dihydro-pyrimidine-5-carboxylic acid methyl ester] | 7 | 0.3 | – | –
9 | COC(=O)C1=C(CN2CCN3C(=O)N(C(C)C)CC3(CC(=O)O)C2)NC(c2nccs2)=N[C@H]1c1ccc(F)cc1Cl (stereo partly drawn) [Example 31, 2-[7-[[(4R)-4-(2-chloro-4-fluoro-phenyl)-5-methoxycarbonyl-2-thiazol-2-yl-1,4-dihydropyrimidin-6-yl]methyl]-2-isopropyl-3-oxo-1,5,6,8-tetrahydroimidazo[1,5-a]pyrazin-8a-yl]acetic acid] | 100 | 0.3 | – | > 775
10 | CCOC(=O)C1=C(CN2CCN3C(=O)N(C(C)(C)C(=O)O)C[C@@H]3C2)NC(c2nccs2)=N[C@H]1c1cccc(F)c1Cl [Example 32, (R)-6-[(S)-2-(1-Carboxy-1-methyl-ethyl)-3-oxo-hexahydro-imidazo[1,5-a]pyrazin-7-ylmethyl]-4-(2-chloro-3-fluoro-phenyl)-2-thiazol-2-yl-1,4-dihydro-pyrimidine-5-carboxylic acid ethyl ester] | 199 | 1.6 | – | > 701
11 | COC(=O)C1=C(CN2CCN3C(=O)N(C(C)(C)CC(=O)O)C[C@@H]3C2)NC(c2nccs2)=N[C@H]1c1ccc(F)cc1Cl [Example 33, 3-[(8aS)-7-[[(4R)-4-(2-chloro-4-fluoro-phenyl)-5-methoxycarbonyl-2-thiazol-2-yl-1,4-dihydropyrimidin-6-yl]methyl]-3-oxo-5,6,8,8a-tetrahydro-1H-imidazo[1,5-a]pyrazin-2-yl]-3-methyl-butanoic acid] | 30 | 2.5 | – | > 748
12 | COC(=O)C1=C(CN2CCN3C(=O)N(C(C)(C)CC(=O)O)C[C@@H]3C2)NC(c2nccs2)=N[C@H]1c1ccc(F)c(F)c1C [Example 37, 3-[(8aS)-7-[[(4S)-4-(3,4-difluoro-2-methyl-phenyl)-5-methoxycarbonyl-2-thiazol-2-yl-1,4-dihydropyrimidin-6-yl]methyl]-3-oxo-5,6,8,8a-tetrahydro-1H-imidazo[1,5-a]pyrazin-2-yl]-3-methyl-butanoic acid] | 17 | 2.5 | – | 422 (≈ 700 µM)
13 | COC(=O)C1=C(CN2CCN3C(=O)N([C@H]4C[C@H](C(=O)O)C4)C[C@@H]3C2)NC(c2nccs2)=N[C@H]1c1ccc(F)cc1Cl [Example 39, 3-[(2S,8aR)-7-[[(4R)-4-(2-chloro-4-fluoro-phenyl)-5-methoxycarbonyl-2-thiazol-2-yl-1,4-dihydropyrimidin-6-yl]methyl]-3-oxo-5,6,8,8a-tetrahydro-1H-imidazo[1,5-a]pyrazin-2-yl]cyclobutanecarboxylic acid] | 30 | 0.4 | – | > 770
14 | COC(=O)C1=C(CN2CCN3C(=O)N([C@H]4CCC[C@H]4C(=O)O)C[C@@H]3C2)NC(c2nccs2)=N[C@H]1c1ccc(F)cc1Cl [Example 51, (1R,2S)-2-[(8aS)-7-[[(4R)-4-(2-chloro-4-fluoro-phenyl)-5-methoxycarbonyl-2-thiazol-2-yl-1,4-dihydropyrimidin-6-yl]methyl]-3-oxo-5,6,8,8a-tetrahydro-1H-imidazo[1,5-a]pyrazin-2-yl]cyclopentanecarboxylic acid] | 31 | 2.0 | – | 589 (≈ 954 µM)
15 | CCOC(=O)C1=C(CN2CCN3C(=O)N(CCCC(=O)O)C[C@@H]3C2)NC(c2nccs2)=N[C@H]1c1cccc(F)c1Cl [Example 53, 4-[(8aS)-7-[[(4R)-4-(2-chloro-3-fluoro-phenyl)-5-ethoxycarbonyl-2-thiazol-2-yl-1,4-dihydropyrimidin-6-yl]methyl]-3-oxo-5,6,8,8a-tetrahydro-1H-imidazo[1,5-a]pyrazin-2-yl]butanoic acid] | 19 | 5.1 | – | > 723
